Measured values published in ChEMBL document CHEMBL1201862, “PubChem BioAssay data set” (2004).
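Test compounds were applied to cells in 96-well plates for 48 hours at 5 doses. GI50 is the concentration that inhibits growth by half.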 The source made the active and inactive calls. No stated cut-off is given here; in the data, active = GI50 up to about 1.1 µM and inactive = higher.

Assays:
Assay in all cases: NCI anticancer screen, dose series, 48 h
[1] = tested on: A549
[2] = tested on: EKVX
[3] = tested on: HCT-116
[4] = tested on: HOP-92
[5] = tested on: IGROV-1
[6] = tested on: MCF7
[7] = tested on: MOLT-4
[8] = tested on: NCI-H460
[9] = tested on: NCI-H522
[10] = tested on: PC-3
[11] = tested on: RXF 393
[12] = tested on: SF-295
[13] = tested on: SK-MEL-28
[14] = tested on: SN12C
[15] = tested on: SR
[16] = tested on: SW-620
[17] = tested on: T47D
[18] = tested on: OVCAR-4
[19] = tested on: TK-10

Structure (SMILES) | GI50 [1] | GI50 [2] | GI50 [3] | GI50 [4] | GI50 [5] | GI50 [6] | GI50 [7] | GI50 [8] | GI50 [9] | GI50 [10] | GI50 [11] | GI50 [12] | GI50 [13] | GI50 [14] | GI50 [15] | GI50 [16] | GI50 [17] | GI50 [18] | GI50 [19]
CC(=O)OCC1OC(Nn2c(=O)[nH]c3ccccc3c2=O)C(OC(C)=O)C(OC(C)=O)C1OC(C)=O (centres undefined) | > 100 µM (inactive) | > 100 µM (inactive) | > 100 µM (inactive) | 89.1 µM (inactive) | > 100 µM (inactive) | > 100 µM (inactive) | 97.7 µM (inactive) | 27.2 µM (inactive) | > 100 µM (inactive) | > 100 µM (inactive) | > 100 µM (inactive) | > 100 µM (inactive) | > 100 µM (inactive) | > 100 µM (inactive) | > 100 µM (inactive) | > 100 µM (inactive) | 35.5 µM (inactive) |  | 
CCOC(=O)[C@H](CO)NC1=C(Cl)C(=O)c2c(O)ccc(O)c2C1=O | > 10 µM (inactive) | > 10 µM (inactive) | > 10 µM (inactive) | > 10 µM (inactive) | > 10 µM (inactive) | 3.21 µM (inactive) | > 10 µM (inactive) | > 10 µM (inactive) | > 10 µM (inactive) | > 10 µM (inactive) | > 10 µM (inactive) | > 10 µM (inactive) | > 10 µM (inactive) | > 10 µM (inactive) | 5.22 µM (inactive) | > 10 µM (inactive) | > 10 µM (inactive) | > 10 µM (inactive) | > 10 µM (inactive)
O=C1CC(c2cccc(Cl)c2)n2cccc21 (centres undefined) | > 100 µM (inactive) |  | > 100 µM (inactive) | 65.3 µM (inactive) |  | > 100 µM (inactive) | 70 µM (inactive) |  |  | 49.5 µM (inactive) | > 100 µM (inactive) | > 100 µM (inactive) | > 100 µM (inactive) | > 100 µM (inactive) | 90.2 µM (inactive) | > 100 µM (inactive) | 44.2 µM (inactive) | > 100 µM (inactive) | > 100 µM (inactive)
NC(CC1=CCC=CC1)C(=O)O (centres undefined) | 74.5 µM (inactive) | > 100 µM (inactive) | 55.1 µM (inactive) | > 100 µM (inactive) | 67.8 µM (inactive) | 47.4 µM (inactive) | 62.2 µM (inactive) | 59.3 µM (inactive) |  | 45.7 µM (inactive) | 70.5 µM (inactive) | 60.3 µM (inactive) | 80.5 µM (inactive) | > 100 µM (inactive) | > 10 µM (inactive) | > 100 µM (inactive) | > 100 µM (inactive) | > 100 µM (inactive) | > 100 µM (inactive)
CCOP(=O)(OCC)C(C(=O)OC)C(=O)C(=O)Nc1cccc(O)c1 (centres undefined) | > 100 µM (inactive) | > 100 µM (inactive) | > 100 µM (inactive) | > 100 µM (inactive) | > 100 µM (inactive) | > 100 µM (inactive) | > 100 µM (inactive) | > 100 µM (inactive) | > 100 µM (inactive) | > 100 µM (inactive) | > 100 µM (inactive) | > 100 µM (inactive) | > 100 µM (inactive) | > 100 µM (inactive) | > 100 µM (inactive) | > 100 µM (inactive) | > 100 µM (inactive) | > 100 µM (inactive) | > 100 µM (inactive)
CCN(CC)CCNc1ccc2ncn3c4cc(OC)c(OC)c(O)c4c(=O)c1c23 | 11.9 µM (inactive) | 16 µM (inactive) | 0.556 µM (active) | 1.61 µM (inactive) | 12.5 µM (inactive) | 2.88 µM (inactive) | 0.524 µM (active) | 1.39 µM (inactive) | 12.6 µM (inactive) | 6.52 µM (inactive) | 1.36 µM (inactive) | 10.4 µM (inactive) | 14.4 µM (inactive) | 6.47 µM (inactive) | 1.29 µM (inactive) | 1.4 µM (inactive) | 21.8 µM (inactive) | 4.9 µM (inactive) | 13.8 µM (inactive)
CC(=O)Nc1cc([As](=O)(O)O)ccc1O [ACETARSONE] | > 100 µM (inactive) | > 100 µM (inactive) | > 100 µM (inactive) | > 100 µM (inactive) | > 100 µM (inactive) | > 100 µM (inactive) | > 100 µM (inactive) | > 100 µM (inactive) | > 100 µM (inactive) | > 100 µM (inactive) | > 100 µM (inactive) | > 100 µM (inactive) | > 100 µM (inactive) | > 100 µM (inactive) | > 100 µM (inactive) | > 100 µM (inactive) | > 100 µM (inactive) | > 100 µM (inactive) | > 100 µM (inactive)
CCCCc1ccc(Nc2nc(Cl)c3c(ncn3C3CC(Oc4ccc(C)cc4)C(COc4ccc(C)cc4)O3)n2)cc1 (centres undefined) | > 100 µM (inactive) | > 100 µM (inactive) | > 100 µM (inactive) | > 100 µM (inactive) | > 100 µM (inactive) | 39.3 µM (inactive) | 33.9 µM (inactive) | > 100 µM (inactive) | > 100 µM (inactive) | > 100 µM (inactive) | > 100 µM (inactive) | > 100 µM (inactive) |  | > 100 µM (inactive) | > 100 µM (inactive) | > 100 µM (inactive) | > 100 µM (inactive) | > 100 µM (inactive) | > 100 µM (inactive)
